# Experimental data: patent US9505730B2, “Mineralocorticoid receptor antagonists” (Merck Sharp & Dohme Corp., priority 2011, dated 2016)
# pIC50: −log10 of the molar value.
# Target: T1, full-length human Mineralocorticoid Receptor (MR) (Homo sapiens, UniProt P08235)
# T1 construct: host or cells: PathHunter CHO-K1 cells
# T1 sequence (P08235 1-984): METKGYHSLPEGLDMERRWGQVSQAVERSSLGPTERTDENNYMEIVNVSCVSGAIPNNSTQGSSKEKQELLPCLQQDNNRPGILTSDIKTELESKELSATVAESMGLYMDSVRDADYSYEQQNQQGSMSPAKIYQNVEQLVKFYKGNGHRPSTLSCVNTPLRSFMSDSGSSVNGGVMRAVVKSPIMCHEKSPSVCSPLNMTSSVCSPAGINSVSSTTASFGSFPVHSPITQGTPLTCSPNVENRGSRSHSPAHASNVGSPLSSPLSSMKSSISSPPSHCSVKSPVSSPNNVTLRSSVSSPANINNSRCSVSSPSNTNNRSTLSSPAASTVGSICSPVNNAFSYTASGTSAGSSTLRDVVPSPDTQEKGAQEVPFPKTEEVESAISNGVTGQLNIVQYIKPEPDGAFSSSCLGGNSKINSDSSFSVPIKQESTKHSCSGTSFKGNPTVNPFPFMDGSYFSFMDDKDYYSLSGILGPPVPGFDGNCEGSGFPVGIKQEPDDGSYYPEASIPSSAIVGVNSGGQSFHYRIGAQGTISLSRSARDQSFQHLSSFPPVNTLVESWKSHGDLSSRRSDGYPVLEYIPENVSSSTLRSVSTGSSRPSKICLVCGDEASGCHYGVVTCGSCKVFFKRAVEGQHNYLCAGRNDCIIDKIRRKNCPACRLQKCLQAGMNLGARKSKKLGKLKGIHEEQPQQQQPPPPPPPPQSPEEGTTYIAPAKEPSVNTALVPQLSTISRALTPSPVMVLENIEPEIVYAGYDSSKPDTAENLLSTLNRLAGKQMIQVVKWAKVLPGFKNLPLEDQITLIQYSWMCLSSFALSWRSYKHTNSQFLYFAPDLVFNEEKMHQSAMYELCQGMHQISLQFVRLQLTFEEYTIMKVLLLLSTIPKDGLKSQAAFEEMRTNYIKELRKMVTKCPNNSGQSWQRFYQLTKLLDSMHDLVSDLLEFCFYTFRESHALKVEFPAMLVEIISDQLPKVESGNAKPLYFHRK
# Test: human MR NH Pro assay (PathHunter Protein:Protein interaction assay, MR antagonism)
# Format: cell-based
# Details: PathHunter CHO-K1 cells overexpressing human MR; aldosterone 0.3 nM; 6 hours at 37° C.; luminescence; read-out: IC50 rating
# Procedure: The activity of the compounds of the present invention regarding mineralocorticoid receptor antagonism was evaluated using the following assay.
# Assessment of Mr Potency in Hmr Nh Pro Assay
# The human MR NH Pro assay is a commercially available PathHunter™ Protein: Protein interaction assay (DiscoveRx; http://www.discoverx.com/nhrs/prod-nhrs.php) that measures the ability of compounds to antagonize full-length human Mineralocorticoid Receptor (MR) binding to a coactivator peptide. PathHunter™ CHO-K1 cells that overexpress human MR (Cat #93-0456C2, Lot No: 09B0913) were cultured in growth media (F12K w/Glutamine and phenol red (Gibco 11765-047) supplemented with 10% HI FBS (Gibco 16000); 0.25 mg/ml Hygromycin in PBS (Invitrogen 10687-010, 50 mg/ml); 100 I.U./mL and 100 μg/mL Pen/Strep (Gibco 15140-122); 0.6 mg/mL Geneticin).
# Compounds were assessed for MR antagonist activity by incubating the cells with a titrating dose of compound in F12K w/Glutamine and phenol red culture media (Invitrogen 11765-047) supplemented with 1% Charcoal/Dextran Treated FBS (Hyclone #SH30068.01) and aldosterone (0.3 nM) for 6 hours at 37° C.
# • F12K w/Glutamine and phenol red (Gibco 11765-047) • 10% HI FBS (Gibco 16000) • 0.25 mg/ml Hygromycin in PBS (Invitrogen 10687-010, 50 mg/ml) • 100 I.U./mL and 100 μg/mL Pen/Strep (Gibco 15140-122) • 0.6 mg/mL Geneticin (Gibco 10131, 50 mg/ml) 2. Assay media: • F12K w/Glutamine and phenol red (Invitrogen 11765-047) • 1% Charcoal/Dextran Treated FBS (Hyclone #SH30068.01) 3. 3× PathHunter Detection Reagents (Cat#93-0001) (need ˜6 ml/plate). […] Control Agonist: Aldosterone: Sigma cat #A9477 • Prepare stock solution—10 μM in DMSO kept at −20 C • for assay, dilute in assay media to 1.8 or 6 nM (6× of final concentration=about 0.3 nM to about 1.0 nM) 5. Cell line: PathHunter CHO-K1 MR cells Cat #93-0456C2, Lot No: 09B0913, from operation liquid nitrogen stock. 6. Control Antagonist: Spironolactone: Sigma #S-3378 and Eplerenone Sigma #107724-20-9 (10 mM stock concentration also prepared in DMSO and stored at −20° C.). Methods: Assay Set up and Calculations: • 1. Cells were grown in F12+FBS+Hygromycin+pen/strep+Genetin. • 2. Cells were collected with 0.05% trypsin and the cell suspension was spun and resuspended in a volume of F12+1.5% CD-FBS and counted. • 3. The cells were resuspended to 4×10^5 cells/mL. • 4. Cells were (25 μL/well) added to the wells of a 384 well plate. • 5. The plate was then incubated at 37° C. over night in a humidified incubator with 5% CO2. • 6. Test compounds were titrated starting at 4.4 mM, 10-point titration in 1:3 dilution. • 7. Aldosterone was diluted in assay media to 1.8 nM or 6 nM from 10 μM stock (final concentration to be about 0.3 nM to about 1.0 nM). Protocol for 384 well plate format: 6 hr treatment: • 1. Plated 10K exponentially growing cells/well (25 μL) resuspended in assay media to each well using the Multidrop (Thermo Electron). Use white wall, clear bottom assay plates (Costar #3570) and incubate overnight at 37° C., 5% CO2. • 2. 0.25 μL 120× test compound (final DMSO concentration should be <1%) was added to each well n=2, 10 point titrations starting at 36.7 μM final concentration. • 3. 5 μL 6× agonist (final aldosterone concentration should be about 0.3 nM to about 1.0 nM) was added to all wells using the PlateMate Plus.
# (ThermoFisher) (except those wells in columns 23 and 24) • 4. 5 μL of assay media was added to all wells in column 23 and 24. • 5. Plates were incubated 6 hrs at 37° C., 5% CO2. • 6. 15 μL 3× DiscoveRx detection reagent was added to each well. • 7. Plates were incubated for 1 hour at room temperature (plates stored in the dark). • 8. Plates were read on Envision (PerkinElmer) luminesence plate reader and analyzed using ADA. LC/MS method: (LC2M_Low/Med_Positive mode). LC Conditions: 5-98% CH3CN/H2O+v 0.1% TFA over 1.25 min; Flow Rate=1.5 mL/min, UV wavelength 254 nm; Column: Waters XTerra® MS C18 3.5 μm 2.1×20 mm IS™
row,pIC50,Structure (SMILES)
1,6.30 to 7.00,"C[C@H](c1ccc(F)cc1)N1C(=O)O[C@](Cc2ccccc2)(C(=O)Nc2ccc(Cl)cc2)C1=O [Compound 14, (5R)-5-Benzyl-N-(4-chlorophenyl)-3-[(1R)-1-(4-fluorophenyl)ethyl]-2,4-dioxo-1,3-oxazolidine-5-carboxamide]"
2,6.30 to 7.00,"C[C@H](c1ccc(F)cc1)N1C(=O)O[C@](Cc2ccccc2)(C(=O)Nc2ccc(F)cc2)C1=O [Compound 15, (5R)-5-Benzyl-N-(4-fluorophenyl)-3-[(1R)-1-(4-fluorophenyl)ethyl]-2,4-dioxo-1,3-oxazolidine-5-carboxamide]"
3,6.30 to 7.00,"C[C@H](C1CCCCC1)N1C(=O)O[C@](Cc2ccc(F)cc2)(C(=O)Nc2ccc(Cl)cc2)C1=O [Compound 16, (5R)-N-(4-Chlorophenyl)-3-[(1R)-1-cyclohexylethyl]-5-(4-fluorobenzyl)-2,4-dioxo-1,3-oxazolidine-5-carboxamide]"
4,6.30 to 7.00,"C[C@H](C1CCCCC1)N1C(=O)O[C@](Cc2ccccc2)(C(=O)NCc2ccc(Cl)c(Cl)c2)C1=O [Compound 17, (5R)-5-Benzyl-3-[(1R)-1-cyclohexylethyl]-N-(3,4-dichlorobenzyl)-2,4-dioxo-1,3-oxazolidine-5-carboxamide]"
5,6.30 to 7.00,"C[C@H](c1ccc(F)cc1)N1C(=O)O[C@](Cc2ccccc2)(C(=O)NC(c2cccc(Cl)c2)C(F)(F)F)C1=O (stereo partly drawn) [Compound 18, (5R)-5-Benzyl-N-[1-(3-chlorophenyl)-2,2,2-trifluoroethyl]-3-[(1R)-1-(4-fluorophenyl)ethyl]-2,4-dioxo-1,3-oxazolidine-5-carboxamide]"
6,6.30 to 7.00,"C[C@H](c1ccc(F)cc1)N1C(=O)O[C@](Cc2ccccc2)(C(=O)Nc2ccccc2)C1=O [Compound 19, (5R)-5-Benzyl-3-[(1R)-1-(4-fluorophenyl)ethyl]-2,4-dioxo-N-phenyl-1,3-oxazolidine-5-carboxamide]"
7,6.30 to 7.00,C[C@H](c1ccc(F)cc1)N1C(=O)O[C@](Cc2ccccc2)(C(=O)Nc2cccnc2)C1=O [Compound 20]
8,6.30 to 7.00,"C[C@H](c1ccccc1)N1C(=O)O[C@](Cc2ccccc2)(C(=O)N2CCc3ccccc3C2)C1=O [Compound 21, (5R)-Benzyl-5-(3,4-dihydroisoquinolin-2(1H)-ylcarbonyl)-3-[(1R)-1-phenylethyl]-1,3-oxazolidine-2,4-dione]"
9,6.30 to 7.00,"C[C@H](c1ccccc1)N1C(=O)O[C@](Cc2ccccc2)(C(=O)N2Cc3ccccc3C2)C1=O [Compound 22, (5R)-Benzyl-5-(1,3-dihydro-2H-isoindol-2-ylcarbonyl)-3-[(1R)-1-phenylethyl]-1,3-oxazolidine-2,4-dione]"
